In paper PMC8322648, “Brevibacillin 2V Exerts Its Bactericidal Activity via Binding to Lipid II and Permeabilizing Cellular Membranes” (Frontiers in Microbiology, 2021):
pKd: −log10 of the molar value.

Assays:
[1] = ref Zhao et al., 2021; cited from earlier work
[2] = Carboxyfluorescein leakage assay, LUVs of pure DOPC; conditions: peptide 100 nM; pure DOPC LUVs 5 μM; 25 mM Tris-HCl, 150 mM NaCl, pH 7.5; ex 492/em 515 nm
Method: LUVs that contain DOPC or DOPC plus 0.1% Lipid II were prepared for a carboxyfluorescein (CF) leakage assay. The lipids were dried by a nitrogen stream and followed under vacuum for 2 h. After that, the lipids were hydrated by adding 25 mm Tris-HCl, 150 mm NaCl, and pH 7.5 containing 50 mm CF. The suspensions were frozen and thawed 10 times, followed by extrusion through 200nm membrane filters (Whatman Nuclepore, Track-Etch Membranes) 10 times. The excess dye was removed by loading vesicles on a spin column (Sephadex G50) for 2 min at 500 × g. Subsequently, the vesicles were diluted to 5 μm, and the brevibacillins-induced release of CF from the vesicles was monitored by measuring the increase in fluorescence intensity. The maximum fluorescence was reached by adding 10 μl of 20% Triton X-100. A Cary Eclipse Fluorescence Spectrophotometer (Agilent, United States) was used to determine the changes of fluorescence signals, and the excitation wavelength and emission wavelength were adjusted to 492 nm and 515 nm, respectively.

S. aureus (MRSA) = experiment: Membrane permeability assay, concentration series (fluorescence microscopy); assay type: cell-based, Staphylococcus aureus; conditions: 15 min; for concentration needed to permeabilize virtually all cellular membranes: comparison of brevibacillin and brevibacillin 2V
Method: Staphylococcus aureus ATCC15975 (MRSA) was grown to an OD600 of 0.8. The culture was pelleted at 5,000 × g for 5 min and washed three times in 10 mm HEPES with 10 mm glucose (pH 7.2). After normalization of the cell density to an OD600 of 0.2 in 10 mm HEPES with 10 mm glucose (pH 7.2), a 2-fold MIC concentration of brevibacillins (4 μg/ml) or nisin (8 μg/ml) was added. At the same time, SYTO® 9 and propidium iodide (LIVE/DEAD Baclight Bacterial Viability Kit, Invitrogen) were added to the above cell suspensions. After incubation at room temperature for 15 min, peptides were removed and washed three times with 10 mm HEPES with 10 mm glucose (pH 7.2). Then, the cell suspensions were loaded on 1.5% agarose pads and analyzed by DeltaVision Elite microscope (Applied Precision; [Zhao and Kuipers, 2021]).
GraphPad Prism 7.0 was used to fit the data of time-killing assay, DiSC3(5) assay, fluorescence quenching assay, ITC assay, and CF Leakage assay in Figures 3–7. The fluorescence images (ratio of membrane permeabilized cells) were quantified by the software Adobe Photoshop 2021. The Kd values of brevibacillins to Lipid II were calculated using the Nano Analyze Software (Waters LLC). The statistical significance of the data was assessed using Duncan’s multiple range test with the software SPSS Statistics 26; values of p < 0.05 were considered to be statistically significant.
Figure 7 Brevibacillins disrupt membrane permeability without the need for Lipid II binding. (A), Cartoon schematic of the assay used to assess membrane permeability disruption of brevibacillins. (B), CF releases (%) vs. time graph showing the effects of adding brevibacillins to DOPC-LUVs with 0.1% Lipid II; peptide concentrations were 100 nm; a, when peptides were added; and b, when 20% Triton X-100 added. (C), CF releases (%) vs. time graph showing the effects of adding brevibacillins to LUVs of pure DOPC; peptide concentrations were 100 nm; a, when peptides were added; and b, when 20% Triton X-100 was added. (D), fluorescence microscopic images of S. aureus (MRSA) after have been treated by a series concentrations of brevibacillins and nisin for 15 min. (E), the ratio of membrane permeabilized cells that was quantified by Adobe Photoshop 2021; the data are representative of three independent experiments.
To investigate the in vivo membrane disruption capacity of brevibacillin and brevibacillin 2V, a membrane permeability assay was performed with a series of concentrations of antibiotics. Nisin was used as a control.

[3] = Isothermal titration calorimetry; assay type: binding; conditions: Figure 5; DOPC LUVs with 2 mol % Lipid II titrated into 50 μM peptide, 10 mM Tris-HCl, 100 mM NaCl, pH 8, 25°C
Method: LUVs containing Lipid II (2%, mol/mol) were prepared by mixing the appropriate volumes of Lipid II and DOPC stock solutions in CHCl3/MeOH (2:1, v/v). The lipid solutions were dried by a nitrogen stream and hydrated with 10 mm Tris-HCl, 100 mm NaCl, and pH 8 buffer to a lipid-phosphate concentration of ~ 20 mm. LUVs were obtained after 10 times freeze-thaw cycles followed by 10 rounds of extrusion through 200 nm membrane filters (Whatman Nuclepore, Track-Etch Membranes). The concentration of lipid-phosphate was determined as described ([Rouser et al., 1970]).
Isothermal titration calorimetry was performed with the Low Volume Nano ITC (Waters LLC, New Castle, DE, United States) to determine the interaction between LUVs and brevibacillins. Brevibacillins were diluted in a buffer (10 mm Tris-HCl, 100 mm NaCl, and pH 8) to a final concentration of 50 μm. Samples were degassed before use. The chamber was filled with 177 μl of the brevibacillins solutions, and the LUVs were titrated into the chamber at a rate of 2 μl/300 s with a stirring rate of 300 rpm. Experiments were performed at 25°C. Control experiments were performed with Lipid II-free LUVs. The Kd values of brevibacillins to Lipid II were calculated using the Nano Analyze Software (Waters LLC).

[4] = Circular dichroism assay, 7-Lipid II; assay type: binding; conditions: 10 mM boric acid-NaOH pH 7.5, 0.1% CHAPS, 20°C; for conformational change in presence of DOPC: antibiotic 50 μM, DOPC vesicles 100 μM; for conformational change in presence of 7-Lipid II: antibiotic and 7-Lipid II 50 μM
Method: Lipid II and 7-Lipid II (a heptaprenyl version of Lipid II) were synthesized and purified as described in a previous study ([Breukink et al., 2003]; Figures 2A,B). Purified Lipid II and 7-Lipid II were dissolved in CHCl3/MeOH (2:1) and stored at −20°C until use, and the concentration was determined after destruction to inorganic phosphate according to [Rouser et al. (1970)]. 7-Lipid II was only used in circular dichroism assays, while wild-type Lipid II was used in all of the other assays.
7-Lipid II and 1,2-dioleoyl-sn-glycero-3-phosphocholine (DOPC) were resuspended in 10 mm boric acid-NaOH pH 7.5 containing 0.1% CHAPS. The final concentration of antibiotics and 7-Lipid II was adjusted to 50 μm, while a 100 μm final concentration of DOPC vesicles was used. After added the samples to a quartz cuvette with a path length of 1 mm, the CD spectra were recorded with a Jasco-810 CD spectropolarimeter at 20°C. The ellipticity was recorded between 185 nm and 260 nm at a 0.2-nm step size with 1-s response time. The spectra were averaged over five recordings with a scanning speed of 50 nm/min.

Substance | rank order of calculated hydrophobicity [1] | membrane disruption (CF leakage), LUVs lacking Lipid II [2] | membrane permeabilization capacity, comparison (S. aureus (MRSA); 100 nM and 400 nM, ratio of membrane permeabilized cells, three independent experiments, p < 0.05) | concentration needed to permeabilize virtually all cellular membranes (S. aureus (MRSA)) | pKd [3] | conformational change in presence of DOPC [4] | conformational change in presence of 7-Lipid II [4] | membrane permeabilization at 100 nM (S. aureus (MRSA); 100 nM, versus untreated group)
Brevibacillin | brevibacillin I > brevibacillin > brevibacillin V > brevibacillin 2V | still caused rapid disruption of membrane | significantly (p < 0.05) higher membrane permeabilization capacity than brevibacillin 2V | a similar concentration of brevibacillin and brevibacillin 2V is needed | 6.06 | no change was apparent | significant conformational change | –
Brevibacillin 2V | brevibacillin I > brevibacillin > brevibacillin V > brevibacillin 2V | still caused rapid disruption of membrane | – | a similar concentration of brevibacillin and brevibacillin 2V is needed | 5.10 | no change was apparent | significant conformational change | did not induce membrane permeabilization
